# Results as given in patent publication US10183943B2, “Heterocyclic compounds and their use in preventing or treating bacterial infections” (MUTABILIS, priority 2015, dated 2019).
# Where a name gives a salt, the structure may show the parent alone.
# Tests used:
# AmpC P. aeruginosa = AmpC P. aeruginosa (Pseudomonas aeruginosa, UniProt P24735); test: β-lactamase inhibitory activity, determination of IC50 (nitrocefin hydrolysis)
# CTX-M-15 = molecular target: T1, CTX-M-15 (Escherichia coli, UniProt Q9EXV5); test: as above; type: biochemical; conditions: class (A); nitrocefin 200 μM, 30 min pre-incubation; read-out: IC50 β-lactamase CTX-M-15
# T1 construct: made in house; host or cells: E. coli
# T1 sequence (Q9EXV5 entry or part of it): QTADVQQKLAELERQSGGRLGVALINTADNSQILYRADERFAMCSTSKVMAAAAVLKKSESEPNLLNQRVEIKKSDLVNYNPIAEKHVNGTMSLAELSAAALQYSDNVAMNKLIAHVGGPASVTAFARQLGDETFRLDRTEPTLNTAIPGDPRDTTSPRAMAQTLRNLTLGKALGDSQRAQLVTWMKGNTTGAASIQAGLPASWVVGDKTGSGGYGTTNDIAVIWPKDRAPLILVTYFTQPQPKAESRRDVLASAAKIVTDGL
# OXA-11 = molecular target: T2, OXA-11 (Pseudomonas aeruginosa, UniProt Q06778); test: as above; type: biochemical
# T2 construct: made in house; host or cells: E. coli
# T2 sequence (Q06778 21-266): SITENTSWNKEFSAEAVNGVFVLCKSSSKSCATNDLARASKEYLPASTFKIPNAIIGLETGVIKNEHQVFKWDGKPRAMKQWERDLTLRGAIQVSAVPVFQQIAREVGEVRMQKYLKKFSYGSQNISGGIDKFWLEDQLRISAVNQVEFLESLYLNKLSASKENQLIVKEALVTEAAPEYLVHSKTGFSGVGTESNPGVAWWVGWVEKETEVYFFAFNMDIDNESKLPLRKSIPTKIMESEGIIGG
# [1] = system: E. cloacae UFR85 (TEM-1, CTX-M-15, AmpC); test: MIC of compounds alone, broth microdilution; type: cell-based; conditions: Enterobacter cloacae, read-out: MIC compounds of the invention alone
# Summary of the method: (§1)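 CLSI broth microdilution with compounds alone, spotted from DMSO, against log-phase bacteria at 5×10^5 cfu/mL in cation-adjusted Mueller-Hinton broth. Plates incubated 16-20 h at 35 °C in ambient air; MIC was the lowest concentration preventing visible growth.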
# [2] = system: K. pneumoniae UFR68 (TEM-1, SHV-11, CTX-M-15, KPC-3); test: MIC of compounds alone, broth microdilution; type: cell-based; conditions: Klebsiella pneumoniae, read-out: MIC compounds of the invention alone
# Summary of the method: as §1
# OXA-1 = molecular target: T3, OXA-1 (Escherichia coli, UniProt P13661); test: β-lactamase inhibitory activity, determination of IC50 (nitrocefin hydrolysis); type: biochemical; conditions: class (D); nitrocefin 200 μM, 30 min pre-incubation; read-out: IC50 β-lactamase OXA-1
# T3 construct: made in house; host or cells: E. coli
# T3 sequence (P13661 26-276): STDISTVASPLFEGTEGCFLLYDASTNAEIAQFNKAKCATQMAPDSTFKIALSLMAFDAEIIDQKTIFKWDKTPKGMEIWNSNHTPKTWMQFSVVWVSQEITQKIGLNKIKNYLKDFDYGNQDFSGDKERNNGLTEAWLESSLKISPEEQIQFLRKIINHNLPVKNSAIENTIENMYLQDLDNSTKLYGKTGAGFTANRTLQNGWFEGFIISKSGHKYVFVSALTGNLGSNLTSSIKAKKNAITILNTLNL
# [3] = system: E. cloacae UFR51 (SHV-12, IMP-8); test: MIC of ceftazidime (CAZ) in combination with compounds at 4 μg/mL, broth microdilution; type: cell-based; conditions: strain UFR51; MIC of CAZ with compound fixed at 4 μg/mL
# Summary of the method: (§2)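 Compounds were dissolved in DMSO and spotted onto plates. Log-phase cells were then added at 5×10^5 cfu/mL in cation-adjusted Mueller-Hinton broth, incubated 16-20 h at 35° C, and the MIC was scored visually as the lowest growth-inhibiting concentration.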
# [4] = system: E. coli UFR41 (TEM-1, CTX-M-15, CMY-2, OXA-1, NDM-4); test: as above; type: cell-based; conditions: strain UFR41; MIC of CAZ with compound fixed at 4 μg/mL
# Summary of the method: as §2
# [5] = system: E. coli 190317 (TEM-1, SHV-12, CTX-M-15, OXA-1); test: MIC of compounds alone, broth microdilution; type: cell-based; conditions: Escherichia coli, read-out: MIC compounds of the invention alone
# Summary of the method: as §1
# [6] = system: E. cloacae 260508 (TEM-1, CTX-M-15); test: MIC of compounds alone, broth microdilution; type: cell-based; conditions: Enterobacter cloacae, read-out: MIC compounds of the invention alone
# Summary of the method: as §1
# [7] = system: E. cloacae UFR70 (TEM-1, CTX-M-15, CMY-2, OXA-1, Porin loss); test: MIC of compounds alone, broth microdilution; type: cell-based; conditions: Enterobacter cloacae, read-out: MIC compounds of the invention alone
# Summary of the method: as §1
# AmpC P. aeruginosa, sequence (P24735 27-397): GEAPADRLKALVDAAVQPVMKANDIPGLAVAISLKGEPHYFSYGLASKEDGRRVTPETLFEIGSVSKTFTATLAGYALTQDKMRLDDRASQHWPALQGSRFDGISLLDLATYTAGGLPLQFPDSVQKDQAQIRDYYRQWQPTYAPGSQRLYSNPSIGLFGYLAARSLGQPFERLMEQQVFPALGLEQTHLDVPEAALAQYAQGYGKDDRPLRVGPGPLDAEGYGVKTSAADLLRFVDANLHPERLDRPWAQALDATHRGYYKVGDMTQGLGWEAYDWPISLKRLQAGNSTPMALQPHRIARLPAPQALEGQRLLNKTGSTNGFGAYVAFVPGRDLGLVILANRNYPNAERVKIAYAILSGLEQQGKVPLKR
SMILES,IC50 (AmpC P. aeruginosa) [nM],IC50 (CTX-M-15) [nM],IC50 (OXA-11) [nM],MIC [1] [µg/mL],MIC [2] [µg/mL],IC50 (OXA-1) [nM],MIC combination of CAZ and compounds of the invention at 4 μg/mL [3] [µg/mL],MIC combination of CAZ and compounds of the invention at 4 μg/mL [4],MIC [5] [µg/mL],MIC [6] [µg/mL],MIC [7] [µg/mL]
"O=C1N2CC(c3ncco3)=C[C@H](C2)N1OS(=O)(=O)[O-].[Na+] [Example 44, Sodium [(5R)-3-(oxazol-2-yl)-7-oxo-1,6-diazabicyclo[3.2.1]oct-3-en-6-yl] sulfate]",75,0.61,46,2,4,87,<0.25,<0.25 µg/mL,–,–,–
"NCc1cnc(C2=CC3CN(C2)C(=O)N3OS(=O)(=O)O)s1 (centres unmarked) [Example 38, [3-[5-(aminomethyl)thiazol-2-yl]-7-oxo-1,6-diazabicyclo[3.2.1]oct-3-en-6-yl] hydrogen sulfate]",320,0.79,560,–,–,630,<0.25,<=0.25 μg/mL,1,> 32,–
"Cn1cc(C2=CCN3CC2N(OS(=O)(=O)[O-])C3=O)cnc1=O.[Na+] (centres unmarked) [Example 15, Sodium [4-(N-methyl-2-oxo-pyrimidin-5-yl)-7-oxo-1,6-diazabicyclo[3.2.1]oct-3-en-6-yl] sulfate]",3500,6.3,2600,> 32,> 32,1100,1,–,–,–,8
"O=C1N2CC=C(c3cnco3)C(C2)N1OS(=O)(=O)[O-].[Na+] (centres unmarked) [Example 3, Sodium [4-(oxazol-5-yl)-7-oxo-1,6-diazabicyclo[3.2.1]oct-3-en-6-yl]sulfate]",2000,2.8,1100,> 32,> 32,210,<0.25,>64 µg/mL,–,16,8
"O=C1N2CC(c3ncco3)=CC(C2)N1OS(=O)(=O)[O-].[Na+] (centres unmarked) [Example 25, Sodium [3-(oxazol-2-yl)-7-oxo-1,6-diazabicyclo[3.2.1]oct-3-en-6-yl]sulfate]",97,15,190,2,–,310,<0.25,0.25 µg/mL,–,4,2
"Cn1ncc(C2=CCN3CC2N(OS(=O)(=O)[O-])C3=O)cc1=O.[Na+] (centres unmarked) [Example 19, Sodium [4-(1-methyl-6-oxo-pyridazin-4-yl)-7-oxo-1,6-diazabicyclo[3.2.1]oct-3-en-6-yl] sulfate]",1800,5.4,290,> 32,> 32,380,<0.25,>64 µg/mL,2,–,16
